Measured values: patent US5208220A, “Composition and treatment with biologically active peptides and antibiotics which inhibit DNA gyrase” (priority 1991, dated 1993)
Where no end group is shown, it is not given here.

How the values were obtained:
Format in all cases: cell-based
Conditions in all cases: compound alone
[1] = system: isolates of strain MR-PSA (multiply resistant) Pseudomonas aeruginosa; test: MIC in microtiter plates, Mueller-Hinton broth (Examples 2 and 3)
Experimental: For Examples 2 and 4, microorganisms employed in the assays were grown according to the procedure described in Stutman, et al., Antimicrobial Agents in Chemotherapy, Vol. 34, July 1990.
The final assays were then conducted in microtiter plates containing Mueller-Hinton broth 10^5 organisms were added to each well.
The minimal inhibitory concentrations, (MIC's), according to the procedure of Example 2, were tested against various isolates of strain MR-PSA, of Pseudomonas aeruginosa, except that Peptide 4 replaces Peptide 1.

[2] = system: P.aeruginosa strain 27853; test: MIC in trypticase soy broth, test wells (Example 1)
Experimental: (§1) Approximately 1-5×10^5 colony forming units (CFU's) of P.aeruginosa strain 27853 or of P.aeruginosa strain 107 (which is gentamicin - resistant) dispersed in 100 ul of trypticase soy broth (TSB) were added to each of a series of test wells. […] For purposes of this example, Peptide 1 is amide-terminated Magainin II, Peptide 2 is of the following structural formula: […]

[3] = system: P.aeruginosa strain 107 (which is gentamicin - resistant); test: as above
Experimental: as §1

**Q.** Which results are given for GIGKFLHSAKKFGKAFVGEIMNS-NH2 [Peptide 1]?
**A.** MIC ([1]; Table 2, MR-PSA isolate 1): 32 µg/mL; MIC ([1]; Table 2, MR-PSA isolate 2): > 256 µg/mL; MIC ([1]; Table 2, MR-PSA isolate 3): 32 µg/mL; MIC ([1]; Table 2, MR-PSA isolate 4): 256 µg/mL; MIC [2]: > 32 µg/mL; MIC [3]: > 32 µg/mL
